What was measured:
Test in all cases: relative viability (nuclei count vs DMSO), 5 days (fraction); higher = more cells survive
NCI-H2347 = system: NCI-H2347
In short: (§1)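 Medians of duplicate plates are given as relative viability. That measure is the nuclei count in treated wells divided by the count in vehicle wells. Counts were taken on 4× images of lung cancer cell lines in 1536-well plates, 5 days after pin-tool dosing the day after seeding with one drug alone or a fixed anchor-drug dose plus five library-drug doses (not always all listed) in √10 steps.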

NCI-H1734 = system: NCI-H1734
In short: as §1

NCI-H322M = system: NCI-H322M
In short: as §1

LK-2 = system: LK-2
In short: as §1

ABC-1 = system: ABC-1
In short: as §1

RERF-LC-KJ = system: RERF-LC-KJ
In short: as §1

A-427 = system: A-427
In short: as §1

NCI-H1944 = system: NCI-H1944
In short: as §1

LC-2-ad = system: LC-2-ad
In short: as §1

SW 1573 = system: SW 1573
In short: as §1

NCI-H1915 = system: NCI-H1915
In short: as §1

NCI-H358 = system: NCI-H358
In short: as §1

NCI-H838 = system: NCI-H838
In short: as §1

NCI-H441 = system: NCI-H441
In short: as §1

HCC-15 = system: HCC-15
In short: as §1

NCI-H2023 = system: NCI-H2023
In short: as §1

UMC-11 = system: UMC-11
In short: as §1

NCI-H647 = system: NCI-H647
In short: as §1

EPLC-272H = system: EPLC-272H
In short: as §1

Cc1cn(-c2cc(NC(=O)c3ccc(C)c(Nc4nccc(-c5cccnc5)n4)c3)cc(C(F)(F)F)c2)cn1 [Nilotinib] + C[C@@H](Oc1cc(-c2cnn(C3CCNCC3)c2)cnc1N)c1c(Cl)ccc(F)c1Cl [Crizotinib] (partner 1 µM)
relative viability (NCI-H2347; first compound 0.001 µM): 0.698
relative viability (NCI-H2347; first compound 0.003162 µM): 0.731
relative viability (NCI-H2347; first compound 0.01 µM): 0.686
relative viability (NCI-H2347; first compound 0.03162 µM): 0.629
relative viability (NCI-H2347; first compound 0.1 µM): 0.853
relative viability (NCI-H1734; first compound 0.001 µM): 0.68
relative viability (NCI-H1734; first compound 0.003162 µM): 0.659
relative viability (NCI-H1734; first compound 0.01 µM): 0.717
relative viability (NCI-H1734; first compound 0.03162 µM): 0.433
relative viability (NCI-H1734; first compound 0.1 µM): 0.475
relative viability (NCI-H322M; first compound 0.001 µM): 1.06
relative viability (NCI-H322M; first compound 0.003162 µM): 0.869
relative viability (NCI-H322M; first compound 0.03162 µM): 0.727
relative viability (NCI-H322M; first compound 0.1 µM): 0.984
relative viability (LK-2; first compound 0.001 µM): 0.244
relative viability (LK-2; first compound 0.003162 µM): 0.276
relative viability (LK-2; first compound 0.01 µM): 0.206
relative viability (LK-2; first compound 0.03162 µM): 0.251
relative viability (LK-2; first compound 0.1 µM): 0.241
relative viability (ABC-1; first compound 0.001 µM): 1.16
relative viability (ABC-1; first compound 0.003162 µM): 1.03
relative viability (ABC-1; first compound 0.01 µM): 1.5
relative viability (ABC-1; first compound 0.03162 µM): 0.913
relative viability (ABC-1; first compound 0.1 µM): 1.34
relative viability (RERF-LC-KJ; first compound 0.001 µM): 0.872
relative viability (RERF-LC-KJ; first compound 0.003162 µM): 0.891
relative viability (RERF-LC-KJ; first compound 0.01 µM): 0.917
relative viability (RERF-LC-KJ; first compound 0.03162 µM): 0.814
relative viability (RERF-LC-KJ; first compound 0.1 µM): 0.867
relative viability (A-427; first compound 0.001 µM): 0.715
relative viability (A-427; first compound 0.01 µM): 1.25
relative viability (A-427; first compound 0.03162 µM): 0.548
relative viability (A-427; first compound 0.1 µM): 0.546
relative viability (NCI-H1944; first compound 0.001 µM): 1.18
relative viability (NCI-H1944; first compound 0.003162 µM): 1.24
relative viability (NCI-H1944; first compound 0.01 µM): 1.21
relative viability (NCI-H1944; first compound 0.03162 µM): 1.16
relative viability (NCI-H1944; first compound 0.1 µM): 0.939
relative viability (LC-2-ad; first compound 0.001 µM): 0.43
relative viability (LC-2-ad; first compound 0.003162 µM): 0.436
relative viability (LC-2-ad; first compound 0.01 µM): 0.449
relative viability (LC-2-ad; first compound 0.03162 µM): 0.42
relative viability (LC-2-ad; first compound 0.1 µM): 0.522
relative viability (SW 1573; first compound 0.001 µM): 0.798
relative viability (SW 1573; first compound 0.003162 µM): 0.882
relative viability (SW 1573; first compound 0.01 µM): 0.946
relative viability (SW 1573; first compound 0.03162 µM): 0.826
relative viability (SW 1573; first compound 0.1 µM): 0.823
relative viability (NCI-H1915; first compound 0.001 µM): 0.73
relative viability (NCI-H1915; first compound 0.003162 µM): 1.18
relative viability (NCI-H1915; first compound 0.01 µM): 1.24
relative viability (NCI-H1915; first compound 0.03162 µM): 0.787
relative viability (NCI-H1915; first compound 0.1 µM): 0.848
relative viability (NCI-H358; first compound 0.001 µM): 0.447
relative viability (NCI-H358; first compound 0.003162 µM): 0.473
relative viability (NCI-H358; first compound 0.01 µM): 0.407
relative viability (NCI-H358; first compound 0.03162 µM): 0.469
relative viability (NCI-H358; first compound 0.1 µM): 0.735
relative viability (NCI-H838; first compound 0.001 µM): 0.896
relative viability (NCI-H838; first compound 0.003162 µM): 0.81
relative viability (NCI-H838; first compound 0.01 µM): 1.03
relative viability (NCI-H838; first compound 0.03162 µM): 0.673
relative viability (NCI-H838; first compound 0.1 µM): 0.926
relative viability (NCI-H441; first compound 0.001 µM): 0.728
relative viability (NCI-H441; first compound 0.003162 µM): 0.825
relative viability (NCI-H441; first compound 0.01 µM): 0.601
relative viability (NCI-H441; first compound 0.1 µM): 0.652
relative viability (HCC-15; first compound 0.001 µM): 0.723
relative viability (HCC-15; first compound 0.003162 µM): 0.96
relative viability (HCC-15; first compound 0.01 µM): 1.1
relative viability (HCC-15; first compound 0.03162 µM): 0.58
relative viability (HCC-15; first compound 0.1 µM): 0.687
relative viability (NCI-H2023; first compound 0.001 µM): 0.659
relative viability (NCI-H2023; first compound 0.003162 µM): 0.683
relative viability (NCI-H2023; first compound 0.01 µM): 0.852
relative viability (NCI-H2023; first compound 0.03162 µM): 0.506
relative viability (NCI-H2023; first compound 0.1 µM): 0.569
relative viability (UMC-11; first compound 0.001 µM): 0.561
relative viability (UMC-11; first compound 0.003162 µM): 0.525
relative viability (UMC-11; first compound 0.01 µM): 0.585
relative viability (UMC-11; first compound 0.1 µM): 0.68
relative viability (NCI-H647; first compound 0.001 µM): 1.05
relative viability (NCI-H647; first compound 0.003162 µM): 1.34
relative viability (NCI-H647; first compound 0.03162 µM): 0.749
relative viability (NCI-H647; first compound 0.1 µM): 0.716
relative viability (EPLC-272H; first compound 0.001 µM): 0.942
relative viability (EPLC-272H; first compound 0.003162 µM): 0.935
relative viability (EPLC-272H; first compound 0.01 µM): 1.01
relative viability (EPLC-272H; first compound 0.03162 µM): 0.831
relative viability (EPLC-272H; first compound 0.1 µM): 0.917

Source: the supplement of paper PMC10307832
